From patent US20120083508A1, “ALPHA-2B RECEPTOR AGONIST AND ANTICONVULSANT COMPOSITIONS FOR TREATING CHRONIC PAIN” (ALLERGAN, INC., priority 2006, published 2012)

Assays:
[1] = test system: Chung rat model of chronic pain; experiment: Chung rat model of chronic pain (allodynia reversal); assay type: in vivo; conditions: for PAIN REVERSAL: rats
Method: Gabapentin was administered intraperitoneally to rats at a minimally effective dose; that is, the compound was administered at a dose that, when administered alone, is the minimum dose required to relieve pain (this dose was calculated by finding, first, the dose that produced drug's maximum effect—that is, the dose that fully alleviated pain—and dividing that dose by three; the result is a dose that is slightly less than 50% of the dose that is required to produce the drug's maximum effect). The rats then immediately received one of two alpha-2B receptor agonists, Compound No. 95 and Compound No. 27, or received no additional compound, at all. […] Pain reversal was then assessed using the Chung rat model of chronic pain. The model is described by Kim and Chung, Pain, […], at 355-363 (1992) and in U.S. Pat. No. 7,091,232, both of which are incorporated by reference herein.
The right-hand column in Table 5 provides the P values showing statistical significance comparing the effect of the alpha-2B receptor agonist+Gabapentin to the effect of Gabapentin alone. The significance was determined using a 2-sided unpaired Student t test.
(§1) A minimal effect is typically <50% reversal of allodynia. Optimal effects are typically >80% reversal of allodynia. Gabapentin by itself is not fully effective so its peak effect is about 62% reversal of allodynia. An ineffective intraperitoneal (IP) Gabapentin dose is 3 mg/kg. A minimally effective dose is 10 mg/kg and its peak effect is achieved with 30 mg/kg. […] Locomotor activity is determined automatically by placing the rat in a digicom analyzer chamber (Omnitech Electronic). These chambers have photocells criss-crossing the box that are broken as the animal moves around. The computer analyses this movement and records total activity over 5-minute time periods.

[2] = test system: Chung rat model of chronic pain; experiment: as above; assay type: in vivo; conditions: for PAIN REVERSAL: Compound No. 27 10 μg/kg given immediately after Gabapentin 10 mg/kg, rats; for pain relief when administered alone at the dose used in the combination: intraperitoneally, doses of Table 4 (No. 95 1 μg/kg, No. 27 10 μg/kg)
locomotor activity = experiment: Locomotor / exploratory activity in a novel chamber (digicom analyzer); assay type: in vivo, rat
Method: as §1

[3] = IP 1 ug/kg + Gabapentin 10 mg/kg

NCC1(CC(=O)O)CCCCC1 [Gabapentin]
PAIN REVERSAL ([1]; Gabapentin 10 mg/kg intraperitoneally, alone): 45%
PAIN REVERSAL ([1]; Gabapentin 10 mg/kg intraperitoneally, alone, listed as gabapentin): 45%
% Allodynia Reversal (30 min peak) ([1]; IP, 10 mg/kg, alone): 40.8 ± 9.3%
% Allodynia Reversal (30 min peak) ([1]; IP, 30 mg/kg, alone): 61.56 ± 5.7%
peak effect, reversal of allodynia ([2]; Gabapentin by itself, IP, peak effect achieved with 30 mg/kg): about 62%
% Allodynia Reversal (30 min peak) ([2]; IP, 1 mg/kg, alone): 5.89 ± 1.3%
dose at which peak effect is achieved ([2]; IP, alone): 30 mg/kg
ineffective intraperitoneal (IP) dose ([2]; IP, alone): 3 mg/kg
minimally effective dose ([2]; IP, alone, minimal effect is <50% reversal of allodynia): 10 mg/kg
sedative effects (locomotor activity) (locomotor activity; 100 mg/kg): significantly reduced locomotor activity
reduction in exploratory activity compared to vehicle treated rats (locomotor activity; 100 mg/kg intraperitoneally 15 minutes before novel chamber, between 40-60 minutes after dosing): > 50%

C1=NC(CC2CCc3ccccc3C2)CN1 (stereo not drawn) [Compound 27]
PAIN REVERSAL [2]: 78%
PAIN REVERSAL ([2]; listed as Compound No. 27): 78%
% Allodynia Reversal (30 min peak) ([2]; IP 10 ug/kg + Gabapentin 10 mg/kg): 77.50 ± 4.7%
% Allodynia Reversal (30 min peak) ([2]; IP, 10 ug/kg, alone): 43.75 ± 7.4%
% Allodynia Reversal (30 min peak) ([2]; IP, 30 ug/kg, alone): 74.59 ± 7.4%
% Allodynia Reversal (30 min peak) ([2]; IP, 100 ug/kg, alone): 90.86 ± 5.9%
pain relief when administered alone at the dose used in the combination ([2]; alone): not effective in relieving pain

OCCNC(=S)NCc1cccc(Cl)c1F [Compound 131]
% Allodynia Reversal (30 min peak) [1, 3]: 88.00 ± 5.4%
% Allodynia Reversal (30 min peak) ([2]; IP, 1 ug/kg, alone): 3.92 ± 1.8%
% Allodynia Reversal (30 min peak) ([2]; IP, 3 ug/kg, alone): 54.67 ± 6.1%
% Allodynia Reversal (30 min peak) ([2]; IP, 10 ug/kg, alone): 85.24 ± 6.0%
% Allodynia Reversal (30 min peak) ([2]; IP, 30 ug/kg, alone): 90.04 ± 6.1%
% Allodynia Reversal (30 min peak) ([2]; IP, 100 ug/kg, alone): 95.31 ± 4.7%
% Allodynia Reversal (30 min peak) ([2]; IP, 300 ug/kg, alone): 91.7 ± 5.3%

C[C@@H](c1c[nH]c(=S)[nH]1)c1cccc2ncccc12 [Compound 95]
PAIN REVERSAL ([1]; Compound No. 95 1 μg/kg given immediately after Gabapentin 10 mg/kg): 75%
% Allodynia Reversal (30 min peak) [2, 3]: 75.46 ± 5.3%
% Allodynia Reversal (30 min peak) ([2]; PO, 1 ug/kg, alone): 1.52 ± 1.0%
% Allodynia Reversal (30 min peak) ([2]; PO, 3 ug/kg, alone): 58.21 ± 5.3%
% Allodynia Reversal (30 min peak) ([2]; PO, 10 ug/kg, alone): 78.43 ± 4.6%
% Allodynia Reversal (30 min peak) ([2]; PO, 30 ug/kg, alone): 81.53 ± 6.2%
% Allodynia Reversal (30 min peak) ([2]; PO, 100 ug/kg, alone): 81.26 ± 8.8%
pain relief when administered alone at the dose used in the combination ([2]; alone): not effective in relieving pain
